Source: ChEMBL document CHEMBL2440103, “Synthesis, docking, and biological studies of phenanthrene β-diketo acids as novel HIV-1 integrase inhibitors” (Bioorg Med Chem Lett, 2013)

Assays:
[1] = biological target: T1, Human immunodeficiency virus type 1 integrase (Human immunodeficiency virus 1, UniProt Q7ZJM1); test: Inhibition of Human immunodeficiency virus 1 integrase-mediated 3'-processing after 30 mins by polyacrylamide gel electrophoresis
[2] = biological target: T1, Human immunodeficiency virus type 1 integrase; test: Inhibition of Human immunodeficiency virus 1 integrase strand transfer activity after 30 mins by polyacrylamide gel electrophoresis
[3] = tested on: Human immunodeficiency virus 1; test: Antiviral activity against Human immunodeficiency virus 1 infected in human PBMC assessed as inhibition of viral replication after 5 days by RT-PCR method; assay type: functional, organism-based; settings: Human immunodeficiency virus 1, 120 h
PBMC = test: Cytotoxicity against human PBMC; assay type: cell-based
Vero = test: Cytotoxicity against african green monkey Vero cells; assay type: cell-based; settings: Chlorocebus sabaeus
[4] = biological target: Human immunodeficiency virus type 1 integrase (Human immunodeficiency virus 1) (UniProt Q7ZJM1); test: Selectivity ratio of IC50 for Human immunodeficiency virus 1 integrase-mediated 3'-processing to IC50 for Human immunodeficiency virus 1 integrase strand transfer activity
CCRF-CEM = test: Cytotoxicity against human CEM cells; assay type: cell-based

T1 sequence (Q7ZJM1 whole entry): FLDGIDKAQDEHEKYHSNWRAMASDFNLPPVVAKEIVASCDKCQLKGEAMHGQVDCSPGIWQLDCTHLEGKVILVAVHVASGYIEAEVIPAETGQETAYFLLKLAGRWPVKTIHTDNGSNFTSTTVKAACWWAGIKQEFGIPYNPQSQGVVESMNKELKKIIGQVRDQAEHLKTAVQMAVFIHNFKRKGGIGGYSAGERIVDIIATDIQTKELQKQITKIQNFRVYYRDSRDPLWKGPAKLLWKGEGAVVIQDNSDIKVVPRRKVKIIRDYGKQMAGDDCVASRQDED
Sequence of Human immunodeficiency virus type 1 integrase (Human immunodeficiency virus 1) (Q7ZJM1 as listed by the source): as the sequence (Q7ZJM1 whole entry) above

Row | Compound | IC50 [1] | IC50 [2] | EC50 [3] | IC50 (PBMC) | IC50 (Vero) | Ratio IC50 [4] | IC50 (CCRF-CEM)
1 | O=C(O)C(=O)CC(=O)c1ccc2ccc3ccccc3c2c1F | 83 µM | 63 µM | – | – | – | – | –
2 | O=C(O)C(=O)CC(=O)c1ccc2c(ccc3c(Cl)cccc32)c1 | 19 µM | 4 µM | – | – | – | – | –
3 | COc1ccc2c(c1)cc(C(=O)CC(=O)C(=O)O)c1ccccc12 | 32 µM | 3 µM | – | – | – | – | –
4 | O=C(O)C(=O)CC(=O)c1ccc2c(ccc3cc(Cl)ccc32)c1 | 12 µM | 1.4 µM | 20.9 µM | 14.1 µM | 7.2 µM | 9 | 12.1 µM
5 | O=C(O)C(=O)CC(=O)c1ccc2c(ccc3c(F)cccc32)c1 | 35 µM | 4 µM | – | – | – | – | –
6 | Cc1cn([C@H]2C[C@H](N=[N+]=[N-])[C@@H](CO)O2)c(=O)[nH]c1=O [ZIDOVUDINE] | – | – | – | > 100 µM | – | – | –
7 | O=C(O)C(=O)CC(=O)c1ccc2c(ccc3ccc(Cl)cc32)c1 | 5 µM | 1.3 µM | 27.5 µM | 4 µM | 4.5 µM | – | 13.1 µM
8 | O=C(O)C(=O)CC(=O)c1ccc2ccc3c(F)cccc3c2c1 | 11 µM | 3 µM | – | – | – | – | –
9 | COc1ccc2c(c1)cc(C(=O)CC(=O)C(=O)O)c1c(F)cccc12 | 44 µM | 6 µM | – | – | – | – | –
10 | O=C(O)C(=O)CC(=O)c1ccc2ccc3cc(F)ccc3c2c1F | 63 µM | 8 µM | – | – | – | – | –
11 | O=C(O)C(=O)CC(=O)c1ccc2ccc3c(Cl)cccc3c2c1 | 11 µM | 1.2 µM | – | – | – | – | –
